Results from US10849966B2, “Methods for treating netosis and neutrophil activation” (TRUSTEES OF BOSTON UNIVERSITY, priority 2017, dated 2020).
Values joined by “and” are separate entries in the source; they are usually repeats but may differ in a detail not shown here. Equal values may be shown once. “Also recorded” adds a separate entry of the source.

Experiments:
[1] = target: T1, DEspR on intact human cells (Homo sapiens, UniProt B0L3A2); experiment: hu6g8 binding to DEspR on intact human cells; settings: done in triplicate
T1 construct: endogenous in cells; host or cells: intact human cells / 'DEspR+ human cells'
T1 sequence (B0L3A2 1-85): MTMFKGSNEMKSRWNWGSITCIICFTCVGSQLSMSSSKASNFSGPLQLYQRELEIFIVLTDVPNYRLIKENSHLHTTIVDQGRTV
Source text: FIGS. 17A-17C depict anti-DEspR-mab (hu6g8 mab). FIG. 17A depicts a diagram of DEspR, murine precursor mabs and humanized IgG and IgG4 mabs. Hu6g8 is notated as 6g8g7-hu-IgG4 raised against epitope 2, spanning the putative binding domain.
Described herein is the development, characterization, and validation of a fully humanized anti-DEspR mAb with a S228P hinge-stabilized IgG4/kappa FC region, designated herein as hu-6g8 or […]. The hu-6g8 was designed for high binding affinity to DEspR+ human cells and inhibition of activated neutrophil survival. hu-6g8 is reactive in all species, having identical epitopes in human, primates and rodents, which facilitates preclinical and clinical studies using the therapeutic lead. […] (FIG. 6). Through recombinant DNA technology, hu-6g8 was designed with optimal biophysical properties via: a) avoidance of T-cell epitopes for low immunogenicity—‘deimmunized’, b) optimization of heavy and light chain interactions for stability of variable domains, and c) exclusion of destabilizing post-translational modification sites [deamidation, oxidation, acid-lability, inappropriate N-glycosylation, isomerization and pyroglutamate formation].
Described herein are the advantages of anti-DEspR mAb targeted AECs. DEspR, the dual endothelin1/signal peptide receptor,^9 is a validated target on human activated neutrophils and NETs. […]

[2] = test system: chronic kidney disease in Dahl S female rats; experiment: CKD in Dahl S female rats fed a HSD; format: in vivo, rat; settings: for albuminuria, effect in words / urinary albumin creatinine ratio (UACR), effect in words: 3 mg/kg iv × 1 dose, after 7 days, moderate-severe CKD; for Albuminuria / Creatinine Clearance / UACR (urinary albumin/urinary creatinine ratio) / Urinary Exosome Excretion: Mean ± SD
Source text: Legend: hu-6g8, humanized anti-DEspR monoclonal antibody, HSD, high salt diet induced via 2% NaCl water to drink ad lib; CKD, Dahl salt-sensitive hypertensive rats with chronic kidney disease with moderate nephrosclerosis (Raij scores˜300) induced with a high salt diet (2% NaCl); control, non-treated age- and sex-matched CKD rats.

[3] = complete blood counts in Panc1-CSC xenograft (CDX) tumor model; format: in vivo, rat; settings: CBC weekly from day 21, vs non-treated controls
Procedure: Complete blood counts (CBC) were measured weekly starting day 21-1 week after treatment onset on day 14 (14 days after Panc1-CSC xenograft (CDX) tumor establishment).

Panc1 xenograft = Panc1 xenograft model survival; settings: in vivo
[4] = test system: Panc1-cancer stem cell pancreatic carcinomatosis xenograft; experiment: CSC-derived pancreatic carcinomatosis xenograft tumor model in nude rats, comorbidities; format: in vivo, rat; settings: treatment start 3 weeks after Panc1-CSC injection; vs untreated
Source text: FIG. 39 depicts a representative image of control untreated tumor rat (left panel) and ABTM-468 treated rat (right panel). Control rat was euthanized due to distress, treated rat was euthanized to obtain age- and tumor-duration-matched tumors. The xenograft tumor model was developed from Panc1-cancer stem cells injected into the peritoneal space 3 weeks prior to the start of treatment. T, tumors; GB, gall bladder.

For “hu-6g8: fully humanized anti-DEspR mAb with a S228P hinge-stabilized IgG4/kappa FC region”, the EC50 [1] was < 5 nM and 4.2 nM, the “albuminuria, effect in words” value [2] was “decreased” and the “urinary albumin creatinine ratio (UACR), effect in words” value [2] was “decreased”. For the same substance, the “albuminuria, effect in words” value ([2]; listed as ABTM-468) was “decreased; also recorded: reduced”, the “urinary albumin creatinine ratio (UACR), effect in words” value ([2]; listed as ABTM-468) was “decreased; also recorded: reduced” and the Albuminuria ([2]; D7 (day of dosing, baseline)) was 404 ± 190 mg/kg/day. For the same substance, the “Creatinine Clearance” value ([2]; D7 (day of dosing, baseline)) was 104 ± 35 µL/min, the “UACR (urinary albumin/urinary creatinine ratio)” value ([2]; D7 (day of dosing, baseline)) was 25450 ± 8980 and the “Urinary Exosome Excretion” value ([2]; D7 (day of dosing, baseline)) was 663 ± 224 mg/kg/day. The Albuminuria ([2]; D14, hu-6g8 3 mg/kg IV at D7) was 92.5 ± 95 mg/kg/day, the “Creatinine Clearance” value ([2]; D14, hu-6g8 3 mg/kg IV at D7) was 168 ± 118 µL/min and the “UACR (urinary albumin/urinary creatinine ratio)” value ([2]; D14, hu-6g8 3 mg/kg IV at D7) was 2285 ± 2337. For the same substance, the “Urinary Exosome Excretion” value ([2]; D14, hu-6g8 3 mg/kg IV at D7) was 876 ± 348 mg/kg/day, the “numbers of quiescent neutrophils (neutropenia side effect)” value ([3]; treatment onset day 14) was “does not cause decreased numbers of quiescent neutrophils” and the platelet counts [3] was “does not cause decreased platelet counts”. The “red blood cell counts” value [3] was “does not cause decreased platelet counts or red blood cell counts”, the survival (Panc1 xenograft) was “increased survival” and the “cancer comorbidities (gut ischemia, ascites, gut dysfunction)” value [4] was “reduced gut ischemia, serous or hemorrhagic ascites, distended gut, and ischemic-hemorrhagic gut (black gut) and gut dysfunction”.
